From article PMC9166630, “SAR Probing of KX2-391 Provided Analogues With Juxtaposed Activity Profile Against Major Oncogenic Kinases” (Frontiers in Oncology, 2022) come the findings set out here.

Experiment [1] concerns HL60 cells. Description: Apoptosis detection (Annexin V-FITC/PI). It is filed as cell-based, human. Particulars: HL60, 7 µM, 48 h. How it is done: Integral to the cell cycle analysis of 4e, we determined the population of cells undergoing apoptosis, or programmed cell death, by Annexin V-FITC/PI double staining in HL60 cells. Two different concentrations of 4e (3.5 µM and 7 µM) were selected for treatment.
Total apoptosis was detected using Annexin V-FITC Apoptosis Detection kit (Cell Signaling Technology, Danvers, MA, USA) as per the protocol. Briefly, 1.5 x 10^5 of HL60 cells were plated in a 6-well plate with appropriate compound concentrations at 37°C for 48 h. After the incubation completed, cells were washed twice with ice-cold PBS (1X). Subsequently cells were stained with Annexin V-FITC/PI and incubated in the dark on ice for 20 min. After washing with PBS wash, the cells were analyzed by acquiring a minimum total of 5000 events using BD FACSAria III flow cytometer (BD Biosciences, USA).

Experiment [2] deals with Src. The experiment is described as follows: PamChip tyrosine kinase microarray, Src. It is filed as biochemical, human. Particulars: 4e 0.1 µM, HL60 lysate. The method, then: (§1) The changes in kinase activities induced by treatment with 4e were monitored within the HL60 cell lines using PamGene’s (Hertogenbosch, Netherlands) PamChip® peptide microarray profiler, which quantifies the activities of 144 tyrosine kinases (YK) ([29], [30]) (Figure 7). Results are provided as a log fold change (LFC) heatmap and Mean Kinase Statistic. From the LFC it is apparent that compound 4e, at a concentration of 0.1 µM, induced sizable changes to the activity of several kinases within the cell signaling YK profile (Figure 7A).
(§2) An Upstream Kinase tool was used to generate a putative list of kinases responsible for phosphorylating the phospho-sites on the PamChip (Figure 7B) ([31]). It is an interpretation and is highly dependent on the contents of the underlying phosphorylation databases. A Kinase Score was used for ranking kinases based on their significance and specificity in terms of the set of peptides used for the corresponding kinase. Kinase Statistics indicates the overall change of the peptide set that represents the kinase. Kinase statistics value <0 indicates lower kinase activity in the compound spiked lysate and vice versa ([32], [33]). Table 5 lists the 20 most changed kinases within treated HL60 cell lysates by 0.1 μM 4e, ranked according to their Kinase Score.
(§3) The two multiple-kinase tests (PamChip and Phosphokinase Profiler) provided strong evidence of very minor involvement of Src in the cellular activities of 4e. However, the question must be raised about the effect of the 4e on other SRC family kinase (SFK). To address this point, we must highlight that both R&D phosphokinase profiler and PamChip feature Yes, Fgr, Lyn, Lck and Src while Fyn, Hck, Blk and Frk activities are tested in the PamChip only. The signals of SFKs in the R&D Phosphokinase Profiler were too weak to detect in both untreated (control) and 4e-treated HL60 cells. In PamChip assay, most of SFK’s were not ranked in the top 20 affected kinases (Table 5). In addition, their Specificity Score were very low (Table 6) indicating their marginal importance to the cell killing activities of 4e. Fgr kinase which ranked 7th in the list (Table 5) was the only SFK member that seems to be affected by the compound, albeit with low Specificity Score (1.03).
(§4) The compound 4e was spiked into HL60 cell lysate at different concentrations (0.001, 0.01, 0.1, 1, 10 and 50 μM). In addition, DMSO was also spiked in HL60 lysate at low concentration (2% v/v) as control. Samples were profiled on PamGene’s Tyrosine Kinase (PTK) arrays in technical replicates, covering a total of 196 phosphorylation sites. Frozen HL60 cultured cell pellet was sent to PamGene. […] Protein concentration was measured using standard Bradford assay as per PamGene SOPs. […]

Experiment [3] concerns Hck. Description: PamChip tyrosine kinase microarray, Hck. Format: biochemical, human. Particulars: 4e 0.1 µM, HL60 lysate. How it is done:
as §1, §2, §3, §4

Experiment [4] addresses T1, Ros (Homo sapiens, UniProt P08922).
T1 construct: endogenous in cells; host or cells: HL60 lysate
The experiment is described as follows: PamChip tyrosine kinase microarray, Ros. Particulars: 4e 0.1 µM, HL60 lysate. Format: biochemical. How it is done:
as §1, §2
(§5) The compound 4e was spiked into HL60 cell lysate at different concentrations (0.001, 0.01, 0.1, 1, 10 and 50 μM). In addition, DMSO was also spiked in HL60 lysate at low concentration (2% v/v) as control. Samples were profiled on PamGene’s Tyrosine Kinase (PTK) arrays in technical replicates, covering a total of 196 phosphorylation sites. Frozen HL60 cultured cell pellet was sent to PamGene. At PamGene, cells were lysed using a lysis buffer and proteases inhibitors cocktail. Protein concentration was measured using standard Bradford assay as per PamGene SOPs. These lysates were further used for generating the PTK activity profiles. For spiking, 4e was received as powder form and dissolved in DMSO at PamGene facility followed by storing at -20°C in small aliquots. PamGene used its in-house bioinformatics toolbox in combination with other methods to generate hypotheses of signaling pathways.

Experiment [5] addresses T2, Tyro3/Sky (Homo sapiens, UniProt Q06418).
T2 construct: endogenous in cells; host or cells: HL60 lysate
T2 sequence (Q06418 41-890): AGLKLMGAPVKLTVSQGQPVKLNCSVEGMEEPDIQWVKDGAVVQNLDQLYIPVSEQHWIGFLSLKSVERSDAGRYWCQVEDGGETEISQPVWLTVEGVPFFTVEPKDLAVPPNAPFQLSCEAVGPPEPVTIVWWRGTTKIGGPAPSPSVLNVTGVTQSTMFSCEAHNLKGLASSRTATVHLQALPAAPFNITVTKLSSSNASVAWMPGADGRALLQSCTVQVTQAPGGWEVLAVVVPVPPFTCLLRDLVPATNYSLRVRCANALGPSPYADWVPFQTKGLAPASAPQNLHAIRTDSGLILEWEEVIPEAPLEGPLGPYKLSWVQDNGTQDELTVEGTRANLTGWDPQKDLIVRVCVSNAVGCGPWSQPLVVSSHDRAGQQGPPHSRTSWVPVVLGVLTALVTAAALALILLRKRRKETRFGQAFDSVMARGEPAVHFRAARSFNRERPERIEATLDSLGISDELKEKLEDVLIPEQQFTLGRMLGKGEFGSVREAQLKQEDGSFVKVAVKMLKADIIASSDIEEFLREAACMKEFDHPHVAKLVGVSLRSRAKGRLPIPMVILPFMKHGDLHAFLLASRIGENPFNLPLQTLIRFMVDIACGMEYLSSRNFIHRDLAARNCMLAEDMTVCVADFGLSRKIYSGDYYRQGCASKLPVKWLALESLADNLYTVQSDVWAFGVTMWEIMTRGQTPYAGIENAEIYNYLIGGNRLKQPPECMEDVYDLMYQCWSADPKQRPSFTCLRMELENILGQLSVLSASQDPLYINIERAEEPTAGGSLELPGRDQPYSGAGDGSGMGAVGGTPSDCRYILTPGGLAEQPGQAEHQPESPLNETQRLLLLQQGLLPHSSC
The experiment is described as follows: PamChip tyrosine kinase microarray, Tyro3/Sky. It is filed as biochemical. Conditions: 4e 0.1 µM, HL60 lysate. How it is done:
as §1, §2, §5

Experiment [6] relates to Lyn. Description: PamChip tyrosine kinase microarray, Lyn. It is filed as biochemical, human. Particulars: 4e 0.1 µM, HL60 lysate. The method, then: as §1, §2, §3, §4

T1 sequence (P08922 28-2347): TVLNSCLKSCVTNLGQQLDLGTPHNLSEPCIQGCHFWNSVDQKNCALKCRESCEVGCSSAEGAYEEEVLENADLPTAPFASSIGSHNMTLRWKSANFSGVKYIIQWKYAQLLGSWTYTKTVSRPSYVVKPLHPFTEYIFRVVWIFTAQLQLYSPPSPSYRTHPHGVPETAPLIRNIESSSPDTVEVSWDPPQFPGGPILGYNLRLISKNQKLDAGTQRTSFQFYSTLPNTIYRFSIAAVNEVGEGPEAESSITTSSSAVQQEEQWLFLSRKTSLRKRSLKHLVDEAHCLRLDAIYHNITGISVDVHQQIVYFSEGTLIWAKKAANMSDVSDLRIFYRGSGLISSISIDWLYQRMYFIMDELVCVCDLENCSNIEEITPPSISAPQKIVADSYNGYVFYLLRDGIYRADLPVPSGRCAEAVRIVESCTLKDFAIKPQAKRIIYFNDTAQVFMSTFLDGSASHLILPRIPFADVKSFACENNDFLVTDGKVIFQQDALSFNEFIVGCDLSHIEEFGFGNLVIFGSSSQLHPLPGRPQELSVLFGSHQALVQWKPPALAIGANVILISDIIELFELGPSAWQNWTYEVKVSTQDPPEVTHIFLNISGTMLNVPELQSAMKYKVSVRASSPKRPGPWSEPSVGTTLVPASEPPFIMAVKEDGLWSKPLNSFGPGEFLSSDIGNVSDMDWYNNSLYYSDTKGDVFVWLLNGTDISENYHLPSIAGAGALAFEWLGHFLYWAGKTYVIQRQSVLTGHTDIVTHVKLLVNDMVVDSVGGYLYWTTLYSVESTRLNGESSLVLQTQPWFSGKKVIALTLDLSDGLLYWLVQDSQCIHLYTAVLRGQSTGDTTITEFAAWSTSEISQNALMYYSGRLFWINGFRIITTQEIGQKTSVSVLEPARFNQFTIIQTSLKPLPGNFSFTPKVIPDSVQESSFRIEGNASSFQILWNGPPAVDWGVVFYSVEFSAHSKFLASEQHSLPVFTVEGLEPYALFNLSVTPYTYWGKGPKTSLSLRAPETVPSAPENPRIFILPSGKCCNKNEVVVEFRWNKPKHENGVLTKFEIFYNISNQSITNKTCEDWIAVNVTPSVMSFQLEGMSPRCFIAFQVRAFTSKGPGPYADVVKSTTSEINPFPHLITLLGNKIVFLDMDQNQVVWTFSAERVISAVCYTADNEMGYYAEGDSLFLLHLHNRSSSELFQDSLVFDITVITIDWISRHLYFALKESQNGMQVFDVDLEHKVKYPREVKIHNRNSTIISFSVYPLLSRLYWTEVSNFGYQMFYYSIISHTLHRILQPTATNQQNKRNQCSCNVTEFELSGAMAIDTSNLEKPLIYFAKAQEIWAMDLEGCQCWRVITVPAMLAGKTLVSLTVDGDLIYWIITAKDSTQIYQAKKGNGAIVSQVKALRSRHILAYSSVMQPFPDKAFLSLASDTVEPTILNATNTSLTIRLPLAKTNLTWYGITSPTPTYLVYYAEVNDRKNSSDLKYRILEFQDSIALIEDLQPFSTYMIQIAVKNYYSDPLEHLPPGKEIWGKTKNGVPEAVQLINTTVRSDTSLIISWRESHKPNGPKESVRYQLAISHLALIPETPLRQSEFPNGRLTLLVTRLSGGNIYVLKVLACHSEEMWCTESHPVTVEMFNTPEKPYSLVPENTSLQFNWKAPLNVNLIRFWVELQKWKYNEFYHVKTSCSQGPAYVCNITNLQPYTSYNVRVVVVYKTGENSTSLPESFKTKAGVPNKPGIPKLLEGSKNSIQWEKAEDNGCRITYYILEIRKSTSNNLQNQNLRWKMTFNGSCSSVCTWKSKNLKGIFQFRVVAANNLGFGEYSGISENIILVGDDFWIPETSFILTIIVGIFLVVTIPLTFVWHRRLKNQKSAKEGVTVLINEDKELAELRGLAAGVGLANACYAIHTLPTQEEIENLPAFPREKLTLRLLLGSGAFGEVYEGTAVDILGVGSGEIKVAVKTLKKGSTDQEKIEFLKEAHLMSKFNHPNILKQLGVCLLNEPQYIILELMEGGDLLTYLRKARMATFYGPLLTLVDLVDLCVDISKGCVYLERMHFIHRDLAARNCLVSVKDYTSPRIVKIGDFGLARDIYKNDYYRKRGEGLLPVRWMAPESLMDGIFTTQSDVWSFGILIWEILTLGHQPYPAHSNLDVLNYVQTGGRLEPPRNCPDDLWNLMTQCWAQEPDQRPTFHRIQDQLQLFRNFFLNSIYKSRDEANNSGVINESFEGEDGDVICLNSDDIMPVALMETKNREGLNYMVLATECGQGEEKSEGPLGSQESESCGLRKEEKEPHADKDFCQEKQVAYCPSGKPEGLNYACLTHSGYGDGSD

In the case of `O=C(Cc1ccc(NC(=O)c2cccc(Cl)c2)cc1)NCc1ccccc1` [Compound 4e, N-(4-(2-(benzylamino)-2-oxoethyl)phenyl)-3-chlorobenzamide], the “percentage of apoptotic cells” value in experiment [1] is reported as “increased significantly”. The “Mean Final Score” value in experiment [2] was 0.7589; in experiment [3], 1.0872; in experiment [4], 2.0991; in experiment [5], 1.8204; in experiment [6], 1.9530. Moreover, the “Mean Kinase Statistic” value is listed as -0.3527 in experiment [2]; -0.4497 in experiment [3]; -0.9704 in experiment [4]; -0.5274 in experiment [5]; -0.5775 in experiment [6]. Besides, the “Mean Significance Score” value in experiment [2] stood at 0.7353; in experiment [3] it was 0.8248; in experiment [4], 0.9578; in experiment [5], 1.2459; in experiment [6], 1.2715. For the same compound, the “Mean Specificity Score” value in experiment [2] was found to be 0.0236; in experiment [3] it was 0.2624; in experiment [4], 1.1413; in experiment [5], 0.5745; in experiment [6], 0.6815.
